The source of these data is patent US20250243190A1, “NEW DEUTERATED RORGAMMA/RORGAMMAT INVERSE AGONISTS” (IMMUNIC AG, priority 2022, published 2025).

Data set [1] is described as follows: Microsomal stability, human liver microsomes. To be noted: both. The method, then: The conversion to the metabolite was monitored by HPLC-MS/MS. Verapamil served as positive control.
(§1) The metabolism was monitored by HPLC-MS/MS. Verapamil served as positive control. The intrinsic clearance was calculated from the measured remaining compound values.
as §1
A general note: Microsomes from liver hold many membrane-bound enzymes, among them those of drug oxidation.

The next data set has as its target T1, RORγt (Homo sapiens, UniProt P51449).
T1 sequence (P51449 269-508 limits assumed): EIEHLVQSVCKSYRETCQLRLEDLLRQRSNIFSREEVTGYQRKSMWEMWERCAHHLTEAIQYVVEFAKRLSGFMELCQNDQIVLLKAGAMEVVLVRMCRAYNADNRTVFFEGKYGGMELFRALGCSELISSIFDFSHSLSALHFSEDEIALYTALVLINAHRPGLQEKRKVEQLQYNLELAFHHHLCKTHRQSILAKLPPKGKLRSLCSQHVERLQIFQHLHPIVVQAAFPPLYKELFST
The experiment in a line: Indigo Biosciences Human RAR-related Orphan Receptor, Gamma Reporter Assay (in vitro inhibition of RORγt). In kind it is cell-based. The note with it: RORγt reporter cells, luciferase readout, 22-24 h incubation; read-out: IC50 range. The method, then: The in vitro inhibition of RORγt was measured using Indigo Biosciences Human RAR-related Orphan Receptor, Gamma Reporter Assay System (Product #IB304001-32) as described in the technical manual. In brief, 200 μL of Reporter Cells is dispensed into wells of the assay plate and preincubated for 4-6 h. Following the pre-incubation period, culture media are discarded and 200 µL/well of the prepared 1×-concentration treatment media are added. Following 22-24 h incubation, treatment media are discarded and Luciferase Detection Reagent is added. The intensity of light emission (in units of ‘Relative Light Units’; RLU) from each assay well is quantified using a plate-reading luminometer. Average values of RLU were determined for each treatment concentration. Non-linear regression analyses were performed and IC50 values determined using GraphPad Prism software. Provided inverse-agonists ursolic acid served as positive control.
(Reporter assays use an easily measured gene product as a stand-in for the process of interest.)

Another data set relates to SARS-CoV-2. The data set can be described thus: Antiviral activity on SARS-CoV-2, viral replication (YFP) assay. In kind it is cell-based. To be noted: Severe acute respiratory syndrome coronavirus 2, read-out: EC50 range. The source says:
(§2) The assay for viral replication (YFP) and the cell viability assay has been described in general in Pathogens 2021; 10:1076 and applied to compounds of the present invention furnished the following results: […]

Data set [2] can be described thus: Cell viability assay accompanying the SARS-CoV-2 assay. Format: cell-based. The note with it: cell viability assay of the SARS-CoV-2 test.
Description: as §2

A short description of data set [3]: Mouse pharmacokinetics, oral or intravenous cassette dosing. In kind it is in vivo, mice (C57BL/6J). To be noted: C57BL/6J, whole blood, 3 female mice, 5 mg/kg oral cassette, sampling 0.25-8 h; for AUC(0-t): read-out: AUC0-8 h. On the procedure: The pharmacokinetics of the compounds of the present invention was evaluated in 3 male and 3 female mice (C57BL/6J, 8 week old) after oral or intravenous cassette dosing to assess the oral bioavailability. Dose was 5 mg/kg (oral) and 1 mg/kg (intravenous), application volume was 5 mL/kg (oral) and 0.5 mL/kg (intravenous), vehicle was 5% solutol, 95% NaCl solution (at 0.9% saline concentration) for oral and 5% solutol, 5% Ethanol, 90% NaCl solution (at 0.9% saline concentration) for intravenous. At each designated time point (0.25, 0.5, 1, 2, 4, 8 and 24 h after dosing), 20 μL whole blood were collected from the tail vein into Li-heparin tubes, frozen on dry ice within 1-2 minutes of sampling and stored at −20° C. until processed for LC-MS analysis. The obtained data is as follows:
The pharmacokinetics of additional compounds of the present invention was evaluated in 3 female mice (C57BL/6J, 8 week old) after oral cassette dosing. Dose was 5 mg/kg, application volume was 5 mL/kg, vehicle was 5% solutol, 95% NaCl solution (at 0.9% saline concentration). At each designated time point (0.5, 1, 2, 4, 8 and 24 h after dosing), 20 μL whole blood were collected from the tail vein into Li-heparin tubes, frozen on dry ice within 1-2 minutes of sampling and stored at −20° C. until processed for LC-MS analysis. The obtained data is as follows:
The pharmacokinetics of additional compounds of the present invention was evaluated in 3 female mice (C57BL/6J, 8 week old) after oral cassette dosing. Dose was 5 mg/kg, application volume was 5 mL/kg, vehicle was 5% solutol, 95% NaCl solution (at 0.9% saline concentration). At each designated time point (0.25, 0.5, 1, 2, 4 and 8 h after dosing), 20 μL whole blood were collected from the tail vein into Li-heparin tubes, frozen on dry ice within 1-2 minutes of sampling and stored at −20° C. until processed for LC-MS analysis.

Where only a bound is given, the exact number is not on record here.

In the case of `[2H]C(C)(O)Cn1ncc(-c2onc(-c3c(F)cccc3Cl)c2-c2ncccn2)c1C(F)(F)F` (stereo not shown) [Comparative Example C1/1, reference compound], the microsomal CLint in data set [1] is 10.5 µL/min/mg.
The same measure, in the same setting: next, `CC(O)Cn1ncc(-c2onc(-c3c(F)cccc3Cl)c2-c2ncccn2)c1C(F)(F)F` (stereo not shown) [Comparative Example C1/2, reference compound]: 15.7 µL/min/mg.
Take `[2H]C(C)(O)C([2H])([2H])n1ncc(-c2onc(-c3c(F)cccc3Cl)c2-c2ncccn2)c1C(F)(F)F` (stereo not shown) [Example 1/1, 1-(4-(3-(2-Chloro-6-fluorophenyl)-4-(pyrimidin-2-yl)isoxazol-5-yl)-5-(trifluoromethyl)-1H-pyrazol-1-yl)propan-1,1,2-d3-2-ol]: on RORγt, the half-maximal inhibitory concentration (IC50) was 10 to 100 nM. The intrinsic metabolic clearance (microsomal CLint) in data set [1] is 7.8 µL/min/mg.
Take `[2H]C([2H])(CC(C)(C)O)n1ncc(-c2onc(-c3c(F)cc(OCCN4CCOCC4)cc3Cl)c2-c2ncccn2)c1C(F)(F)F` [Example 6, 4-(4-(3-(2-Chloro-6-fluoro-4-(2-morpholinoethoxy)phenyl)-4-(pyrimidin-2-yl)isoxazol-5-yl)-5-(trifluoromethyl)-1H-pyrazol-1-yl)-2-methylbutan-4,4-d2-2-ol]: the IC50 on RORγt fell in the range of 100 to 1000 nM. Besides, the concentration for a half-maximal effect (EC50) with SARS-CoV-2 lay within 100 to 1000 nM. For the same molecule, half-maximal cytotoxicity in data set [2] (CC50) was put at 27000 nM.
In the case of `[2H]C([2H])(CC(C)(C)O)n1ncc(-c2onc(-c3c(F)cccc3Cl)c2C(=O)OC)c1C(F)(F)F` [Example 7, Methyl 3-(2-chloro-6-fluorophenyl)-5-(1-(3-hydroxy-3-methylbutyl-1,1-d2)-5-(tri-fluoromethyl)-1H-pyrazol-4-yl)isoxazole-4-carboxylate], the IC50 on RORγt lay in the range of 10 to 100 nM. Besides, the EC50 in the data set with SARS-CoV-2 was less than 100 nM. The molecule also returned a CC50 in data set [2] of 20000 nM.
The like results for `[2H]C([2H])([2H])OC(=O)c1c(-c2c(F)cccc2Cl)noc1-c1cnn(C([2H])([2H])CC(C)(C)O)c1C(F)(F)F` [Example 7/2, Methyl-d3 3-(2-chloro-6-fluorophenyl)-5-(1-(3-hydroxy-3-methylbutyl-1,1-d2)-5-(tri-fluoromethyl)-1H-pyrazol-4-yl)isoxazole-4-carboxylate] were, in that order, 10 to 100 nM, less than 100 nM and 63000 nM.
Regarding `[2H]C([2H])(OC1CC1)c1c(-c2c(F)cccc2Cl)noc1-c1cnn(C([2H])([2H])CC(C)(C)O)c1C(F)(F)F` [Example 9, 4-(4-(3-(2-Chloro-6-fluorophenyl)-4-(cyclopropoxymethyl-d2)isoxazol-5-yl)-5-(trifluoro-methyl)-1H-pyrazol-1-yl)-2-methylbutan-4,4-d2-2-ol], the IC50 on RORγt is 10 to 100 nM. Further, in the data set with SARS-CoV-2, the EC50 fell in the range of 100 to 1000 nM. The same molecule gave a 50% cytotoxic concentration (CC50) in data set [2] of 18000 nM.
For `[2H]C([2H])([2H])c1c(-c2onc(-c3c(F)cccc3Cl)c2-c2ncccn2)cnn1C([2H])([2H])CC(C)(C)O` [Example 10/1] the same measures were 100 to 1000 nM, 100 to 1000 nM and greater than 100000 nM.
Take `[2H]C([2H])(OC(C)C)c1c(-c2c(F)cccc2Cl)noc1-c1cnn(-c2cccc(Cl)c2)c1C(F)(F)F` [Example 102/1]: on RORγt, the IC50 was less than 10 nM. Further, in data set [3], the highest level (Cmax) was 922 ng/mL, the half-life is 2.6 h and the AUC(0-t) stood at 2350 ng·h/mL. Also, in the data set on SARS-CoV-2, the EC50 is less than 100 nM. This molecule also came in with a CC50 in data set [2] greater than 100000 nM.
Regarding `[2H]C([2H])(OC([2H])(C([2H])([2H])[2H])C([2H])([2H])[2H])c1c(-c2c(F)cccc2Cl)noc1-c1cnn(-c2cccc(Cl)c2)c1C(F)(F)F` [Example 102/2], the IC50 at RORγt was less than 10 nM. In addition, in data set [3], the concentration peaked (Cmax) at 112 ng/mL, the half-life was 2.8 h and the AUC(0-t) worked out at 280 ng·h/mL. The EC50 in the data set on SARS-CoV-2 is less than 100 nM. The CC50 in data set [2] was greater than 100000 nM.
Take `[2H]C([2H])([2H])OC([2H])([2H])c1c(-c2c(F)cccc2Cl)noc1-c1cnn(-c2cccc(Cl)c2)c1C(F)(F)F` [Example 110, 3-(2-Chloro-6-fluorophenyl)-5-(1-(3-chlorophenyl)-5-(trifluoromethyl)-1H-pyrazol-4-yl)-4-((methoxy-d3)methyl-d2)isoxazole]: at RORγt, the IC50 was less than 10 nM. For the same molecule, the half-maximal effective concentration (EC50) with SARS-CoV-2 was less than 100 nM. This molecule yielded a CC50 in data set [2] greater than 100000 nM.
For `[2H]C([2H])(OC([2H])([2H])C([2H])([2H])[2H])c1c(-c2c(F)cccc2Cl)noc1-c1cnn(-c2cccc(Cl)c2)c1C(F)(F)F` [Example 110/1] the same measures were 10 to 100 nM, less than 100 nM and greater than 100000 nM.

For orientation: microsomal CLint means the rate of metabolic loss divided by the concentration. Broadly, the IC50 is the concentration needed to halve the response being measured. The EC50 is the midpoint of the concentration-response curve. As usually defined, the CC50 is the concentration giving 50% cytotoxicity. Lower therefore signals greater toxicity to the cells. For orientation: Cmax means the maximum level reached in the sampled fluid or tissue. The term half-life denotes the time in which the quantity being followed falls by half. A high value points to slow decline.
